In one test the test system is PKD1. The experiment in a line: PKD1 phosphorylation (activation) in stimulated mouse cortical neurons, western blot. Type of test: cell-based. As to conditions: for PKD1 phosphorylation at activation loop (S744/8) and autophosphorylation (S916) sites after stimulation: mouse cortical cultures, substance applied alone, 10 min; for effect on glutamate-induced PKD1 phosphorylation: antagonist applied with glutamate. (In western blotting, separated proteins are transferred to a membrane and probed.)

The next test relates to Venus-PKD1. Briefly: Venus-PKD1 translocation to dendritic puncta (puncta index) in transfected neurons. The format is cell-based, mouse. As to conditions: for Venus-PKD1 translocation / puncta formation induced by the substance: substance applied alone, glutamate 30 μM, ACPD 500 μM, K+ 55 mM in the presence of APV; for effect on glutamate-induced Venus-PKD1 puncta formation: drug applied with glutamate.

In a further test the test system is pH-GluR2. The experiment in a line: pHluorin GluR2 recycling assay in mouse cortical neurons. The format is cell-based. The source says: Rat GluR2 tagged with superecliptic pHluorin was cloned into pGW1 mammalian expression vector. mCherry was subcloned to replace enhanced green fluorescent protein (EGFP) in FUGW PKD1 shRNA and control vectors. mCherry served as a morphology marker to monitor the overall health of the cell. pHluorin-GluR2 and PKD1 shRNA or mutant control were transfected into mouse cortical neurons with Lipofectamine 2000 (Invitrogen). At 12 DIV, neurons were imaged on a Zeiss LSM 510 confocal microscope with a 40× water immersion lens in HBS as described above, only nimodipine was excluded. After 20 min of baseline imaging, 30 μM glutamate and 10 μM glycine were washed on to cells by gravity flow perfusion for 5 min, followed by washout with control HBS solution. Images were collected every 5 min. Average pixel intensity of pH-GluR2 in the cell body was calculated in MetaMorph, and background was measured in a cell-free region of the image and subtracted from fluorescence intensities before further calculations. Fractional change in fluorescent intensity (ΔF/F0) was calculated as Ft−F0/F0, where Ft is pHGluR2 intensity at time t and F0 is the average pH-GluR2 fluorescence intensity at four points before glutamate application.

This note sets out measurements from patent US9359445B2, “Compositions and methods for treating neurological disorders” (The J. David Gladstone Institutes, priority 2010, dated 2016).

Entries after “also recorded” stand apart in the source; their conditions may differ.

Turning to `CN[C@H](CC(=O)O)C(=O)O` [NMDA, N-methyl-D-aspartate], in the test on PKD1 (glutamate 30 μM), the “PKD1 phosphorylation at activation loop (S744/8) and autophosphorylation (S916) sites after stimulation” value (“PKD1 phosphorylation at activation loop” for short) was “did not stimulate autophosphorylation”. Besides, in the test with Venus-PKD1, the “Venus-PKD1 translocation / puncta formation induced by the substance” value is “puncta formation was induced”.
Consider glutamate, for which, in the test with PKD1 (glutamate 30 μM, time of stimulation), the “duration of glutamate-induced PKD1 phosphorylation” value is listed as “up to 60 min”. Also, the “PKD1 phosphorylation at activation loop” value in the test with PKD1 (glutamate 30 μM) is “rapidly and robustly phosphorylated”. Moreover, the “Venus-PKD1 translocation / puncta formation induced by the substance” value in the test on Venus-PKD1 was “translocated to discrete puncta throughout the dendrites”. For the same molecule, the pH-GluR2 fluorescence intensity with pH-GluR2 (after 5 minutes of glutamate application) is given as ~80 % of baseline. Also, the pH-GluR2 fluorescence recovery with pH-GluR2 (fifty-five minutes after glutamate stimulation, neurons with endogenous PKD1) is > 90 % of baseline. Also, the “pH-GluR2 fluorescence intensity at maximal endocytosis” value in the test on pH-GluR2 (immediately after glutamate stimulation) is 20 % of baseline.
For `CC(N)(C(=O)O)c1ccc(C(=O)O)cc1` (stereo not drawn) [MCPG, alpha-methyl-4-carboxyphenylglycine], in the test with PKD1, the “effect on glutamate-induced PKD1 phosphorylation” value is listed as “reduced glutamate-induced PKD1 phosphorylation”. For the same molecule, the “effect on glutamate-induced Venus-PKD1 puncta formation” value with Venus-PKD1 is recorded as “unaffected”.
For the molecule `N[C@@]1(C(=O)O)CC[C@@H](C(=O)O)C1` [ACPD, (1S,3R)-1-aminocyclopentane-1,3-dicarboxylic acid], the “PKD1 phosphorylation at activation loop” value in the test on PKD1 (glutamate 30 μM) is listed as “induced phosphorylation”. In addition, in the test on Venus-PKD1, the “Venus-PKD1 translocation / puncta formation induced by the substance” value is given as “did not induce translocation”.
On to `COc1ccc2c(c1)c(C1=C(c3c[nH]c4ccccc34)C(=O)NC1=O)cn2CCCN(C)C` [Gö6983], for which the “effect on glutamate-induced Venus-PKD1 puncta formation” value in the test with Venus-PKD1 is reported as “did not prevent PKD1 translocation; also recorded: had no effect”.
Turning to `NC(CCCP(=O)(O)O)C(=O)O` (racemic) [APV, D,L-2-amino-5-phosphonovaleric acid], the “effect on glutamate-induced PKD1 phosphorylation” value in the test with PKD1 was “did not block phosphorylation”. In the test with Venus-PKD1, the “effect on glutamate-induced Venus-PKD1 puncta formation” value is given as “blocked”.
Regarding `COc1ccc2c(c1)CC[C@@H]1[C@@H]2CC[C@]2(C)[C@@H](NCCCCCCN3C(=O)C=CC3=O)CC[C@@H]12` [U73122], the “effect on glutamate-induced Venus-PKD1 puncta formation” value in the test with Venus-PKD1 is recorded as “blocked glutamate-induced puncta formation; also recorded: blocks puncta formation”.
For the molecule `Cn1c2ccccc2c2c3c(c4c5ccccc5n(CCC#N)c4c21)CNC3=O` [Gö6976], in the test on Venus-PKD1, the “effect on glutamate-induced Venus-PKD1 puncta formation” value is “had no effect”.
As for `N[C@H](C(=O)O)c1cc(O)cc(O)c1` [DHPG, (S)-3,5-dihydroxyphenylglycine], the “PKD1 phosphorylation at activation loop” value in the test with PKD1 (glutamate 30 μM) was “induced phosphorylation”.
Consider `CN(C)CCCn1cc(C2=C(c3c[nH]c4ccccc34)C(=O)NC2=O)c2ccccc21` [GF109203X], for which the “effect on glutamate-induced Venus-PKD1 puncta formation” value with Venus-PKD1 is recorded as “had no effect”; in the test with Venus-PKD1 (listed as GF 109203×), “did not prevent PKD1 translocation”.

B1: BDNF: brain-derived neurotophic factor, activates TrkB receptors (protein, UniProt P23560 19-247, looked up)
Neurotrophic factor BDNF …: APMKEANIRGQGGLAYPGVRTHGTLESVNGPKAGSRGLTSLADTFEHVIEELLDEDQKVRPNEENNKDADLYTSRVMLSSQVPLEPPLLFLLEEYKNYLDAANMSMRVRRHSDPARRGELSVCDSISEWVTAADKKTAVDMSGGTVTVLEKVPVSKGQLKQYFYETKCNPMGYTKEGCRGIDKRHWNSQCRTTQSYVRALTMDSKKRIGWRFIRIDTSCVCTLTIKRGR
In the case of B1, in the test with PKD1 (glutamate 30 μM), the “PKD1 phosphorylation at activation loop” value is recorded as “did not activate PKD1”.
